From PMC7010361 (ACS chemical biology, 2019)

Target: BRD4 in HeLa cells (Homo sapiens, UniProt O60885)
Assay: Western blot analysis of BRD4 degradation
Type: cell-based
Conditions: HeLa cells treated 24 h with varying concentrations; GAPDH loading control

Cc1ncsc1-c1ccc(CNC(=O)[C@@H]2C[C@@H](O)CN2C(=O)[C@@H](NC(=O)COCCOCCOCCNC(=O)C[C@@H]2N=C(c3ccc(Cl)cc3)c3c(sc(C)c3C)-n3c(C)nnc32)C(C)(C)C)cc1 [MZ1]
BRD4 degradation (western blot): dose dependent degradation of BRD4
